# Assays:
# [1] = tested on: Panagrellus redivivus; experiment: Bioactivity of cyclotide 2 against the nematode Panagrellus redivivus (dose-response, % mortality); assay type: in vivo
# Procedure: Panagrellus was grown in basal medium and diluted in sterile water to create a stock solution concentration of 200 nematodes/50 μL (the basal media inoculum). Using a multi-channel pipette, 50 μL of the nematode stock solution was added to each well of plates containing the fractionated crude extract. Tests were performed on duplicate samples. Once the activity was established, the HPLC peaks corresponding to the active wells were purified and dose-response assays were done.
# Samples for a dose-response assay were resuspended in 40 μL and 4 wells of 8 μL, 6 μL, 4 μL and 2 μL were prepared in replicates of two. The volume was adjusted with the basal media inoculum to get a final volume of 50 μL and 200 nematodes per well. […] The percent mortality was calculated as ratio of dead nematodes against the total (living and dead) number present in the test wells.
# [2] = tested on: Colletotrichum graminaria; experiment: Dose-response fungal growth inhibition assay; assay type: cell-based; settings: 2500 spores/mL in 1/2 strength PDB, 28° C., scored after 24 and 48 hours
# Procedure: (§1) The anti-fungal activity of cyclotide 2 was tested against the crop pathogens Fusarium verticilloides and Colletotrichum graminaria, and the filamentous fungus Neurospora crassa. To conduct the assay, 100 μL of ½ strength potato dextrose broth (PDB) containing a spore suspension of 2500 spores/mL was added to each well in a 96 well microtiter plate containing dried HPLC fractions. The plates were mixed three times in approximately five minute intervals before incubation at 28° C., and were scored after 24 hours and 48 hours for inhibition of fungal growth. Inhibition of fungal growth was defined as little to no spore germination with no detectable hyphae growth.
# (§2) The dose-response fungal assays were performed by resuspending the lyophilized cyclotide protein sample in 200 μL of a solution which consisted of fungal spores suspended in ½ strength potato dextrose broth (PDB) at a concentration of 2500 spores/mL. The spores were either from Fusarium verticilloides, Colletotrichum graminaria or Neurospora crassa. This resuspended sample represented a starting stock solution. A 0.5× dilution series was then prepared by removing 100 μL of the starting stock solution and adding it to a well in a 96 well tray containing 100 μL of spore suspension (2500 spores/mL), mixing thoroughly and then transferring 100 μL of the newly diluted cyclotide/spore suspension to a fresh well containing 100 μL of spore suspension etc., until all 12 columns of the row of sample in the 96 well tray were prepared. The final volume of the assay was then 100 μL. The plates were mixed three times in approximately five minute intervals before they were incubated at 28° C. and then were scored after 24 and 48 hours for inhibition of fungal growth. Inhibition of fungal growth was defined as little to no spore germination with no detectable hyphae growth.
# [3] = tested on: Fusarium verticilloides; experiment: Dose-response fungal growth inhibition assay; assay type: cell-based; settings: 2500 spores/mL in 1/2 strength PDB, 28° C., scored after 24 and 48 hours
# Procedure: as §1, §2
# [4] = tested on: Neurospora crassa; experiment: Dose-response fungal growth inhibition assay; assay type: cell-based; settings: 2500 spores/mL in 1/2 strength PDB, 28° C., scored after 24 and 48 hours
# Procedure: as §1, §2
# [5] = tested on: Sclerotinia; experiment: Sclerotinia hyphal growth inhibition dose-response assay; assay type: cell-based, Sclerotinia sclerotiorum; design: key: 0: no inhibition of fungal growth; 1: slight inhibition; 2: moderate inhibition; 3: extensive inhibition; 4: total inhibition; settings: 48 hours
# Procedure: To test the activity of cyclotide 2 against Sclerotinia, a Sclerotinia test inoculum was started by inoculating ½ strength PDB liquid with a sterile loop of hyphae from a Sclerotinia culture propagated on a ⅛ strength potato dextrose agar (PDA) plate. This liquid inoculum was held at room temperature (22° C.), without shaking, in the dark for 4 days, to allow sufficient growth of hyphae. The resulting suspension was macerated using a sterile polytron tissue grinder. The sample was then diluted with ½ strength PDB to the point of invisibility to the naked eye (observation under microscopy at 40× indicated the presence of 12-15 hyphal fragments per 50 μL aliquot of inoculum). Then, 50 μL of the inoculum was added to each well of a 96 shallow well bioassay plate.
# The cyclotide sample, following fractionation and lyophilization, was resuspended in 100 μL ½ strength PDB, placed on ice and gently shaken. Then, 50 μL of resuspended sample was added to each corresponding well of the bioassay plate to give a final test volume of 100 μL and […] per well. In the inoculum control wells, 50 μL of inoculum and 50 μL of ½ strength PDB were used, while the media control wells contained 100 μL of ½ strength PDB. The wells were covered with Breathe-Easy membranes (Web Scientific Ltd., Cheshire, U.K.) and placed in the dark on the benchtop.
# For the dose-response assay, lyophilized cyclotide 2 was resuspended in 40 μL of ½ strength PDB solution. Then, 20 μL of the resuspended sample was pipetted into 4 different wells containing either 8 μL, 6 μL, 4 μL or 2 μL of suspension. The final volume in each well was adjusted to 100 μL with the Sclerotinia test inoculum. The plates were covered with Breathe-Easy membranes (Web Scientific Ltd., Cheshire, U.K.) and placed in the dark on the benchtop.
# [6] = tested on: Caenorhabditis elegans; experiment: Nematocidal activity of cyclotide 2 against C. elegans (dose-response, development score); assay type: in vivo; design: key to Replicate 1 Score (nematode development) / Replicate 2 Score (nematode development): 1: no development; 2: little development; 5: medium development; 10: full development; settings: for Replicate 1 Score (nematode development) / Replicate 2 Score (nematode development): 50 L1-stage nematodes per well
# Procedure: Samples of cyclotide 2 to be used in a dose-response assay were resuspended in 180 μl distilled H2O to create a stock solution of 161.3 μM. The dose-response assay was carried out in 96 well microtiter plates with each dose prepared in replicates of two. Each assay well contained 50 L1-stage nematodes which had been grown in S-medium (100 mM NaCl, 10 mM K citrate, pH 6.0, 50 mM KHPO4, pH 6.0, 3 mM CaCl2, 3 mM MgCl2, […], […], 10 mM MnCl2, 10 mM ZnSO4, 1 mM CuSO4) and had been allowed to feed on overnight cultured E. coli strain OP50, 30 μg/mL tetracycline and 30 μg/mL chloramphenicol. The total assay volume was 100 μL. The assay was scored at days 3 and 4 (Table 3).
# [7] = tested on: Caenorhabditis elegans; experiment: as above; assay type: in vivo; settings: fractionated crude extract of Viola spp.
substance,measurement,setting,value
"cyclotide 2: bioactive cyclotide purified from Viola spp. extract; SEQ ID NO:6 GIPCGESCVWIPCISAAIGCSCKSKVCYRN (cyclo(GIPCGESCVWIPCISAAIGCSCKSKVCYRN); not fully specified (bridges); also: three disulfide bonds (cystine knot), pairings not given here; listed as Viola sp.)",Scored at 18 hrs (% mortality),[1]; 10.07 μM,60%
same,Scored at 24 hrs (% mortality),[1]; 10.07 μM,74%
same,Scored at 18 hrs (% mortality),[1]; 20.13 μM,>60%
same,Scored at 24 hrs (% mortality),[1]; 20.13 μM,78%
same,Scored at 18 hrs (% mortality),[1]; 30.20 μM,70%
same,Scored at 24 hrs (% mortality),[1]; 30.20 μM,80%
same,Scored at 18 hrs (% mortality),[1]; 40.27 μM,85%
same,Scored at 24 hrs (% mortality),[1]; 40.27 μM,90%
same,Scored at 18 hrs (% mortality),[1]; 50.34 μM,85%
same,Scored at 24 hrs (% mortality),[1]; 50.34 μM,95%
same,Scored at 18 hrs (% mortality),[1]; 60.40 μM,90%
same,Scored at 24 hrs (% mortality),[1]; 60.40 μM,~100%
same,Activity of HPLC peak against Panagrellus redivivus,[1]; fractionated crude extract of Viola spp.,specifically active
same,LD90 concentration (concentration at which 90% of the nematodes are killed),[1]; within 24 hrs observation time,40.27 µM
same,Cyclotide concentration at which total inhibition of fungal growth is observed,[2],2.5 µM
same,Cyclotide concentration at which total inhibition of fungal growth is observed,[3],10 µM
same,Cyclotide concentration at which total inhibition of fungal growth is observed,[4],1.25 µM
same,Score (inhibition of hyphal growth),[5]; 1.67 μM,1
same,Score (inhibition of hyphal growth),[5]; 3.33 μM,2
same,Score (inhibition of hyphal growth),[5]; 5.0 μM,4
same,Score (inhibition of hyphal growth),[5]; 6.67 μM,3
same,Replicate 1 Score (nematode development),[6]; 0.81 μM,10
same,Replicate 2 Score (nematode development),[6]; 0.81 μM,10
same,Replicate 1 Score (nematode development),[6]; 1.62 μM,10
same,Replicate 2 Score (nematode development),[6]; 1.62 μM,10
same,Replicate 1 Score (nematode development),[6]; 3.24 μM,5
same,Replicate 2 Score (nematode development),[6]; 3.24 μM,5
same,Replicate 1 Score (nematode development),[6]; 6.48 μM,2
same,Replicate 2 Score (nematode development),[6]; 6.48 μM,2
same,Replicate 1 Score (nematode development),[6]; 16.2 μM,1
same,Replicate 2 Score (nematode development),[6]; 16.2 μM,1
same,LD90,[6]; recorded after day three,6.48 µM
same,Activity of HPLC peak against Caenorhabditis elegans,[7],specifically active
